Assay results as given in publication PMC4555179, “Molecular insights into Zeaxanthin-dependent quenching in higher plants” (Scientific Reports, 2015).

Tests used:
CP24 (CP24-his tag) [1] = target: T1, CP24 (CP24-his tag) (Arabidopsis thaliana, UniProt Q9LMQ2); assay: co-purified pigment, HPLC and absorption fit of acetone extract; format: binding; settings: complex from control plants; endogenous pigment
T1 construct: gene LHCB6; mature thylakoid protein (transit peptide removed in vivo), C-terminal His tag kept; purified from plant thylakoids by sucrose gradient (Band 2) and Ni column; monomer
T1 sequence (Q9LMQ2 50-258): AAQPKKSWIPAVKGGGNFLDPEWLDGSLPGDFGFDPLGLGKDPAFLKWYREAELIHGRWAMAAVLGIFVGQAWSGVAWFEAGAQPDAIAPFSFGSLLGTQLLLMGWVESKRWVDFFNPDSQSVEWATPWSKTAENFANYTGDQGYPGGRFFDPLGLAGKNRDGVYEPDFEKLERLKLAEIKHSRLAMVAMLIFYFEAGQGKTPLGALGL

CP24 (CP24-his tag) [2] = target: T1, CP24 (CP24-his tag); assay: as above; format: binding; settings: complex from light-stressed plants (30 min high light), pH 5.5, 4 °C; endogenous pigment; peripheral, not in internal L1/L2 sites
Excerpt: co-purified pigment, HPLC and absorption fit of acetone extract on CP24 (CP24-his tag)

CC1=C[C@H](O)CC(C)(C)[C@H]1/C=C/C(C)=C/C=C/C(C)=C/C=C/C=C(C)/C=C/C=C(C)/C=C/C1=C(C)C[C@@H](O)CC1(C)C [L, lutein] was tested, and the V (CP24 (CP24-his tag) [1]) was 0.89 ± 0.02 mol per monomer (normalised to 10 Chl).

CC(/C=C/C=C(C)/C=C/[C@@]12O[C@]1(C)C[C@@H](O)CC2(C)C)=C\C=C\C=C(C)\C=C\C=C(C)\C=C\[C@@]12O[C@]1(C)C[C@@H](O)CC2(C)C [V, violaxanthin] was tested, and the V (CP24 (CP24-his tag) [1]) was 0.89 ± 0.02 mol per monomer (normalised to 10 Chl).

CC1=C(/C=C/C(C)=C/C=C/C(C)=C/C=C/C=C(C)/C=C/C=C(C)/C=C/C2=C(C)C[C@@H](O)CC2(C)C)C(C)(C)C[C@H](O)C1 [Z, zeaxanthin] was tested, and the Z (CP24 (CP24-his tag) [2]) was 0.20 ± 0.00 mol per monomer (normalised to 10 Chl).
